According to patent publication US20110268757A1, “USE OF PHENOL-SOLUBLE MODULINS FOR VACCINE DEVELOPMENT” (INSTITUT PASTEUR, priority 2008, published 2011):

How the values were obtained:
[1] = system: IFNγ producing cells specific for peptide p1073 from hepatitis C NS3 protein; assay: ELISPOT of IFNγ producing cells specific for peptide 1073 after immunization; format: in vivo; conditions: 5 nmoles peptide with poly I:C, seven days after immunization
Procedure: For the analysis of IFNγ-producing cells specific for […] and induced in vivo by the immunizations, ELISPOT experiments were carried out using a BD-pharmingen kit (San Diego, Calif.) and according to the instructions of the manufacturer. Briefly, the plates (Multiscreen HTS, Millipore, Bedford, Mass.) incubated overnight with the anti-IFNγ antibody were blocked for 2 hours with HL-1 medium (Biowhittaker, Verviers, Belgium) containing 10% horse serum. Thus, 5×10^5 splenocytes were incubated in triplicate in the absence or in the presence of the antigens at 37° C. and 5% CO2. On the following day, the plates were washed with PBS and incubated with biotinylated anti-IFNγ antibody (2 mg/ml). After two hours, the plates were washed and incubated with a 1/100 dilution of streptavidin-peroxidase. One hour later, the wells were washed and developed using the AEC substrate set (BD-Pharmingen). The colorimetric reaction was stopped with distilled water and the number of spots was quantified using an ELISPOT automatic reader (CTL, Aalen, Germany).
(§1) Thus the peptides αMod-1073, γMod-1073 and δMod-1073 as well as the peptide p1073 alone were synthesized. HELD transgenic mice (which express the human HLA_A2 molecule) were immunized with 5 nmoles of the corresponding peptide in the presence of poly I:C. Seven days after immunization, ELISPOT and in vivo killing assays were carried out as described above using target cells pulsed with peptide 1073.

[2] = system: target cells pulsed with peptide 1073; assay: In vivo killing assay using target cells pulsed with peptide 1073; conditions: 5 nmoles peptide with poly I:C, seven days after immunization
Procedure: C57BL6 mice were intravenously immunized intravenously with 5 nmoles of the indicated peptides in combination with 50 μg of the TLR3 ligand poly I:C. In some cases, the peptides were immunized in the presence of TLR2 (peptidoglycan), TLR4 (LPS or the EDA protein) or TLR9 (CpG) ligand. […] On the following day, the mice were sacrificed and the splenocytes were analyzed by flow cytometry to quantify the number of cells with high CFSE labeling with respect to the cells with low CFSE labeling. Thus, the percentage of cell lysis of the cells incubated with the cytotoxic […] peptide can be calculated in an experiment called in vivo killing.
as §1

[3] = system: dendritic cells derived from bone marrow; assay: Upregulation of maturation markers on dendritic cells (flow cytometry); format: cell-based, mouse; conditions: 50 μM peptide, 48 hours
Procedure: (§2) Dendritic cells were grown from bone marrow cells. […] The remaining cells grew in 12 culture plates in complete medium with 10^6 cells/ml supplemented with 20 ng/ml of mGM-CSF and 20 ng/ml of mIL-4 (both from Peprotech; London, GB). Every 2 days the medium was substituted with fresh medium containing cytokines. On day 7, non-adherent dendritic cells were collected, and cultured in the presence or absence of 50 μM of modulin peptides or of 1 μg/ml of LPS (Sigma) and incubated for 48 hours at 37° C. and 5% CO2. After this period, the cells were isolated and incubated with anti IAb, CD54 and CD86 antibodies (Pharmingen). In parallel experiments, the dendritic cells were incubated with the indicated stimuli for 16 hours, after which the expression of the messenger RNA for the p40 molecules of IL-12 and of TNF-α was analyzed.
Expression of DC maturation markers was measured by flow cytometry. DC were harvested and pre-incubated with a rat anti-CD16/32 mAb (2.4G2 clone, BD Pharmingen) for 15 min, to block non-specific binding of primary antibodies. After this initial incubation, cells were stained with the primary antibodies at 4° C. for 15 min, washed and acquired on FACSscan cytometer (BD Biosciences, San Diego, Calif.) and analyzed using Cell Quest software (BD Biosciences).

[4] = system: dendritic cells derived from bone marrow; assay: Expression of messenger RNA for IL-12 p40 and TNFα in dendritic cells (real-time PCR); format: cell-based, mouse; conditions: 50 μM peptide, 16 hours, versus culture medium alone, p<0.05
Procedure: as §2
The total RNA of dendritic cells incubated for 16 hours with the different stimuli indicated above were extracted using the Nucleic Acid Purification Lysis Solution (Applied BioSystems, Foster City, Calif.) and the ABI PRISM 6100 Nucleic Acid PrepStation (Applied BioSystems) semiautomatic system.

mouse splenocytes = assay: Binding of CFSE labeled peptides to glutaraldehyde-fixed splenocytes (flow cytometry); format: cell-based; conditions: unlabeled competitor 100 μM, 20 μM CFSE γMod-SIINFEKL
Procedure: Binding assays were carried out using either splenocytes (FIG. 1, panels A B, D, E and G) or bone marrow derived dendritic cells (FIG. 1, panels C and F). The cells were fixed by means of an incubation with a 0.4% glutaraldehyde solution for 15 minutes at 4° C. 5×10^5 fixed cells were incubated in the presence of 20 μM CFSE αMod-[sequence] (FIG. 1, panels A, B and C), or CFSE γMod-[sequence] (FIG. 1, panels D, E, F and G). In some assays, and to study the specificity of CFSE labeled peptide binding, these incubations were carried out in the presence or absence of the unlabeled peptides αMod-[sequence], γMod-[sequence] or [sequence] (100 μM) (panels B and E). Also, we carried out binding assays using the CFSE labeled peptide CFSE-OVA (235-264) as a negative control (FIG. 1, panels A, C, D and F). After 30 minutes of incubation at 4° C., two washings with PBS were carried out and the performed labeling was analyzed by flow cytometry. In some experiments (FIG. 1G), double staining was carried out using anti-CD4, CD8, CD11c, CD19, F480 or GR1(CD117) antibodies labeled with phycoerythrin (Pharmingen) together with the CFSE-γMod-[sequence] peptide. In these cases, the labeling with the specific antibodies was carried out before fixing the cells with glutaraldehyde.

[5] = system: T cells from OT-1 transgenic mice; assay: Antigen presentation assay: proliferation of OT-1 T cells (tritiated thymidine); format: cell-based, mouse; conditions: dendritic cells incubated with 10 μM peptide
Procedure: Dendritic cells derived from bone marrow were cultured in the presence or absence of 10 μM of the indicated peptides (FIG. 3). Forty hours later, the cells were washed and distributed in 96-well plates at different concentrations and incubated in the presence of 10^5 T cells/well obtained from OT-1 transgenic mice (which express a specific T receptor for the SIINFEKL peptide of ovalbumin. Seventy-two hours later, tritiated thymidine was added to the cultures and six hours later the cells were harvested and the incorporated thymidine was analyzed in a scintillation counter (Topcount Packard).

[6] = system: splenocytes pulsed with the SIINFEKL peptide; assay: In vivo killing assay against SIINFEKL-pulsed splenocytes after immunization; design: species or system C57BL/6 mice; conditions: 5 nmoles peptide plus 50 μg poly I:C
Procedure: C57BL6 mice were intravenously immunized intravenously with 5 nmoles of the indicated peptides in combination with 50 μg of the TLR3 ligand poly I:C. In some cases, the peptides were immunized in the presence of TLR2 (peptidoglycan), TLR4 (LPS or the EDA protein) or TLR9 (CpG) ligand. […] On the following day, the mice were sacrificed and the splenocytes were analyzed by flow cytometry to quantify the number of cells with high CFSE labeling with respect to the cells with low CFSE labeling. Thus, the percentage of cell lysis of the cells incubated with the cytotoxic SIINFEKL peptide can be calculated in an experiment called in vivo killing.
C57BL6 wild type mice and knockout mice were immunized for TLR2 with the aim of studying the dependence on TLR2 in the immunostimulating capacity of modulin-derived peptides. Thus, different mice were injected with 5 nmoles of the indicated peptides or with PBS in combination with 50 μg of the TLR3 ligand poly I:C. […] On the following day, the mice were sacrificed and the splenocytes were analyzed by flow cytometry to quantify the number of cells with high CFSE labeling with respect to the cells with low CFSE labeling in the same manner as in Example 3.

[7] = system: IFNγ-producing cells in response to the SIINFEKL peptide; assay: ELISPOT of IFNγ-producing cells specific for SIINFEKL after immunization; format: in vivo, C57BL/6 mice; conditions: 5 nmoles peptide plus 50 μg poly I:C
Procedure: C57BL6 mice were intravenously immunized intravenously with 5 nmoles of the indicated peptides in combination with 50 μg of the TLR3 ligand poly I:C. In some cases, the peptides were immunized in the presence of TLR2 (peptidoglycan), TLR4 (LPS or the EDA protein) or TLR9 (CpG) ligand. Seven days after the immunization, the mice were intravenously injected with a mixture of 5×10^6 splenocytes, half of which had been previously labeled with a dose of 0.25 μM C and the other half with 2.5 uM CFSE and the SIINFEKL peptide (10 μg/ml). On the following day, the mice were sacrificed and the splenocytes were analyzed by flow cytometry to quantify the number of cells with high CFSE labeling with respect to the cells with low CFSE labeling. Thus, the percentage of cell lysis of the cells incubated with the cytotoxic SIINFEKL peptide can be calculated in an experiment called in vivo killing.
For the analysis of IFNγ-producing cells specific for SIINFEKL and induced in vivo by the immunizations, ELISPOT experiments were carried out using a BD-pharmingen kit (San Diego, Calif.) and according to the instructions of the manufacturer. Briefly, the plates (Multiscreen HTS, Millipore, Bedford, Mass.) incubated overnight with the anti-IFNγ antibody were blocked for 2 hours with HL-1 medium (Biowhittaker, Verviers, Belgium) containing 10% horse serum. Thus, 5×10^5 splenocytes were incubated in triplicate in the absence or in the presence of the antigens at 37° C. and 5% CO2. On the following day, the plates were washed with PBS and incubated with biotinylated anti-IFNγ antibody (2 mg/ml). After two hours, the plates were washed and incubated with a 1/100 dilution of streptavidin-peroxidase. One hour later, the wells were washed and developed using the AEC substrate set (BD-Pharmingen). The colorimetric reaction was stopped with distilled water and the number of spots was quantified using an ELISPOT automatic reader (CTL, Aalen, Germany).
For the analysis of IFNγ-producing cells in the presence of SIINFEKL and induced in vivo by the immunizations, ELISPOT experiments were carried out using a BD-pharmingen kit (San Diego, Calif.) and according to the instructions of the manufacturer, in the same manner as in Example 3.

EG7OVA tumor cells [8] = assay: Protection against the challenge with EG7OVA tumor cells after immunization; format: in vivo, C57BL/6 mice; conditions: 5 nmoles peptide with poly I:C
Procedure: Protection against the challenge with EG7 tumor cells expressing the OVA protein C57BL6 mice were subcutaneously immunized with 5 nmol of the indicated peptides in combination with poly I:C. […] In some experiments, mice were first challenged s.c with 5×10^5 cells and when tumors reached 5 mm in diameter they were treated with the indicated peptide. The tumor growth was controlled with a gage. Mice were sacrificed when the tumor reached a volume greater than 4 cm^3. Kaplan-Meier plot of mice survival for each immunogen is depicted.

EG7OVA tumor cells [9] = assay: Treatment of mice bearing established EG7OVA tumors; format: in vivo, C57BL/6 mice; conditions: EG7OVA tumors of 5 mm diameter at treatment, peptide plus poly I:C, p<0.05
Procedure: Protection against the challenge with EG7 tumor cells expressing the OVA protein C57BL6 mice were subcutaneously immunized with 5 nmol of the indicated peptides in combination with poly I:C. Seven days after the immunization, the mice were subcutaneously injected with 5×10^5 or with 5×10^7 EG7OVA cells. In some experiments, mice were first challenged s.c with 5×10^5 cells and when tumors reached 5 mm in diameter they were treated with the indicated peptide. The tumor growth was controlled with a gage. Mice were sacrificed when the tumor reached a volume greater than 4 cm^3. Kaplan-Meier plot of mice survival for each immunogen is depicted.

[10] = system: TC-1 tumor cells (expressing the E7 protein of the HPV-16 virus); assay: Treatment of mice carrying TC1 subcutaneous tumors; format: in vivo, C57B/6 mice; conditions: TC1 tumors of 8 mm diameter, i.v. peptide plus 50 μg/ml poly I:C, second immunization seven days later
Procedure: The C57B/6 mice were subcutaneously injected with 5×10^5 TC-1 tumor cells (expressing the E7 protein of the HPV-16 virus). After 25 days, when the tumor reaches a diameter of 8 mm, the mice are intravenously treated with PBS (B), with peptide E7(49-57) plus 50 μg/ml poly I:C(C), or with peptide αMod-E7(49-57) plus 50 μg/ml poly I:C (D). Seven days later, the mice received a second immunization of the same immunogens. The tumor size, presented as the average of two perpendicular diameters, was measured at regular intervals using a gauge. The number of tumor-free mice relative to the total number of animals per group is included for each treatment.

CVNGVCWTV [Peptide 1073, reference compound]
IFNγ producing cells specific for peptide 1073 (ELISPOT) [1]: not found
CTL activity against peptide 1073 (in vivo killing) [2]: not found

MSIVSTIIEVVKTIVDIVKKFKKCVNGVCWTV [δMod-1073]
IFNγ producing cells specific for peptide 1073 (ELISPOT) [1]: high numbers of IFNγ producing cells
CTL activity against peptide 1073 (in vivo killing) [2]: high levels of CTL activity

MAADIISTIGDLVKWIIDTVNKFKK [γMod]
expression of CD54 on dendritic cells [3]: promotes the expression
expression of the IAb molecule on dendritic cells [3]: promotes the expression
expression of messenger RNA for IL-12 (p40) [4]: capable of increasing the expression
expression of messenger RNA for TNF-alpha [4]: capable of increasing the expression

MADVIAKIVEIVKGLIDQFTQKCVNGVCWTV [αMod-1073]
IFNγ producing cells specific for peptide 1073 (ELISPOT) [1]: strong T cell immune responses
CTL activity against peptide 1073 (in vivo killing) [2]: strong T cell immune responses

SIINFEKL [reference compound]
reduction of the bright fluorescence of CFSE γMod-SIINFEKL on splenocytes by unlabeled peptide (mouse splenocytes): did not affect this signal
proliferation of OT-1 T lymphocytes stimulated by peptide-incubated dendritic cells [5]: proliferate better
cells with lysis capacity against SIINFEKL (in vivo killing) ([6]; 60 days after immunization): not capable of inducing
specific cytotoxic activity against SIINFEKL (in vivo killing) ([6]; seven days after immunization): not capable of activating these responses
IFNγ-producing cells in response to SIINFEKL (ELISPOT) ([7]; 60 days after immunization): not capable of inducing
IFNγ-producing cells in response to SIINFEKL (ELISPOT) ([7]; seven days after immunization): not capable of activating these responses
protection from tumor growth after EG7OVA challenge (EG7OVA tumor cells [8]; 5×10^5 EG7OVA cells s.c. seven days after immunization (FIG. 5A)): developed tumors
protection from tumor growth after EG7OVA challenge (EG7OVA tumor cells [8]; 7×10^5 EG7OVA cells s.c. seven days after immunization (FIG. 5B)): developed tumors
mice rejecting the established tumor (EG7OVA tumor cells [9]): 0%

polyinosinic-polycytidylic acid [poly I:C]
mice rejecting the established tumor (EG7OVA tumor cells [9]): 0%

MADVIAKIVEIVKGLIDQFTQK (Staphylococcus epidermidis RP62A) [αMod]
expression of CD54 on dendritic cells [3]: activates the expression
expression of CD86 on dendritic cells [3]: activates the expression
expression of the IAb molecule on dendritic cells [3]: activates the expression
expression of messenger RNA for IL-12 (p40) [4]: capable of increasing the expression
expression of messenger RNA for TNF-alpha [4]: capable of increasing the expression

MAADIISTIGDLVKWIIDTVNKFKKCVNGVCWTV [γMod-1073]
IFNγ producing cells specific for peptide 1073 (ELISPOT) [1]: high numbers of IFNγ producing cells
CTL activity against peptide 1073 (in vivo killing) [2]: high levels of CTL activity

RAHYNIVTF [E7(49-57), reference compound]
number of tumor-free (cured) mice relative to the total number of mice [10]: 4 of 11
